Columns and labels:
[1] = Masking effect on benzoic acid, trained panel; parameters: species or system human; settings: base benzoic acid 250 ppm in water, test sample 0.5 ppm; for Masking Intensity: panel average, scale 0-5
Source text: (§1) Preparation of Test Samples: […], oroxylin A-7 glucouronide, wogonoside, baicalein, oroxylin A and wogonin were purchased commercially. S. baicalensis extract (“Extract”) and cabohydrase-treated S. baicalensis extract (“Treated Extract”) were obtained as above in Example 1.
(§2) Subsequently, all compounds and extracts were applied to different bases for evaluating their off-taste masking functions.
(§3) Testing Procedure: The masking effects on the off-tastes (bitterness, sourness, astringency, lingering and drying aftertaste, etc.) associated with various food components was evaluated by a group of 16 trained panelist. Each provided a rank of masking intensity using the intensity scales of 0 to 5, where 0 represents “no masking effect,” 1 represents “minimal masking intensity” and 5 represents “the most masking intensity.” The average of the reported making intensity is presented in the following examples.
A base solution of benzoic acid was prepared in water (250 ppm). […] The flavor profile of the benzoic acid solutions with compounds or extracts was further evaluated and is reported in the following: […]

[2] = Masking effect on sorbic acid, trained panel; parameters: species or system human; settings: base sorbic acid 150 ppm in water; for Masking Intensity: panel average, scale 0-5
Source text: as §1, §2, §3
A base solution of sorbic acid was prepared in water (150 ppm). […] The flavor profile of the sorbic acid solutions with compounds or extracts were further evaluated and is reported in the following: […]

[3] = Masking effect on Reb A, trained panel; parameters: species or system human; settings: base Reb A 200 ppm in water; for Masking Intensity: panel average, scale 0-5
Source text: as §1, §2, §3
A base solution of Reb A was prepared in water (200 ppm). […] The flavor profile of the Reb A solutions with compounds or extracts were further evaluated and is reported in the following: […]

[4] = Masking effect on pea protein, trained panel; parameters: species or system human; settings: base TRUPRO pea protein 5% in water, test sample 0.5 ppm; for Masking Intensity: panel average, scale 0-5
Source text: as §1, §2, §3
A base solution of TRUPRO® pea protein (Solae LLC) was prepared in water (5%). […] The flavor profile of the pea protein solutions with compounds or extracts were further evaluated and is reported in the following: […]

[5] = Masking effect on citric acid, trained panel; parameters: species or system human; settings: base citric acid 300 ppm in water; for Masking Intensity: panel average, scale 0-5
Source text: as §1, §2, §3
A base solution of citric acid was prepared in water (300 ppm). […] The flavor profile of the citric acid solutions with compounds or extracts were further evaluated and is reported in the following: […]

[6] = Masking effect on Acesulfame-K, trained panel; parameters: species or system human; settings: base Acesulfame-K 300 ppm in water, test sample 0.5 ppm; for Masking Intensity: panel average, scale 0-5
Source text: as §1, §2, §3
A base solution of Acesulfame-K was prepared in water (300 ppm). […] The flavor profile of the Acesulfame-K solutions with compounds or extracts were further evaluated and is reported in the following: […]

[7] = Masking effect on Reb M, trained panel; parameters: species or system human; settings: base Reb M 200 ppm in water; for Masking Intensity: panel average, scale 0-5
Source text: as §1, §2, §3
A base solution of Reb M was prepared in water (200 ppm). […] The flavor profile of the Reb M solutions with compounds or extracts were further evaluated and is reported in the following: […]

[8] = Taste modulating activity of the individual compounds; settings: individual compounds, Example 1
Method: With bio-transformation, most baicalin was converted to baicalein; oroxylin A glucuronide was converted to oroxylin A; and wogonoside was converted to wogonin. The activity of the individual compounds was also analyzed for taste modulating activity.

healthy subjects = settings: oral doses in the range of 100-2800 mg; cited from earlier work
[9] = Taste modulation in applications (Table 3), malic/citric acid base; settings: base malic acid 1000 ppm and citric acid 2000 ppm in water; 1 ppm, composition composed only of wogonin

For `O=c1cc(-c2ccccc2)oc2cc(O)c(O)c(O)c12` [Baicalein, 5,6,7-trihydroxyflavone], the “Masking Intensity” value [1] was 3, the “Masking Intensity” value ([2]; test sample 0.001 ppm) was 0 and the “Masking Intensity” value ([2]; test sample 0.01 ppm) was 1. For the same molecule, the “Masking Intensity” value ([2]; test sample 0.1 ppm) was 2, the “Masking Intensity” value ([2]; test sample 0.5 ppm) was 3 and the “Flavor Profile” value ([2]; test sample 1 ppm) was “Reduced astringency, sourness, and drying”. The “Masking Intensity” value ([2]; test sample 1 ppm) was 4, the “Flavor Profile” value ([2]; test sample 10 ppm) was “Reduced astringency, sourness, and drying” and the “Masking Intensity” value ([2]; test sample 10 ppm) was 4. The “Flavor Profile” value ([2]; test sample 50 ppm) was “Reduced astringency, sourness, and drying”, the “Masking Intensity” value ([2]; test sample 50 ppm) was 3 and the “Masking Intensity” value ([3]; test sample 0.5 ppm) was 3. The “Flavor Profile” value [4] was “Reduced astringency and bitterness, less”, the “Masking Intensity” value [4] was 3 and the “Masking Intensity” value ([5]; test sample 0.01 ppm) was 1. For the same molecule, the “Flavor Profile” value ([5]; test sample 0.1 ppm) was “Slightly reduced tart taste”, the “Masking Intensity” value ([5]; test sample 0.1 ppm) was 2 and the “Flavor Profile” value ([5]; test sample 0.5 ppm) was “Reduced tart taste”. The “Masking Intensity” value ([5]; test sample 0.5 ppm) was 3, the “Flavor Profile” value ([5]; test sample 1 ppm) was “Reduced tart taste” and the “Masking Intensity” value ([5]; test sample 1 ppm) was 4. For the same molecule, the “Flavor Profile” value ([5]; test sample 10 ppm) was “Reduced tart taste, very slight bitterness”, the “Masking Intensity” value ([5]; test sample 10 ppm) was 3 and the “Flavor Profile” value ([5]; test sample 50 ppm) was “Reduced tart taste, noticeable bitterness”. The “Masking Intensity” value ([5]; test sample 50 ppm) was 2, the “Flavor Profile” value [6] was “Slightly reduced bitterness and lingering” and the “Masking Intensity” value [6] was 2. For the same molecule, the “Flavor Profile” value ([7]; test sample 0.5 ppm) was “Slightly reduced bitterness and lingering”, the “Masking Intensity” value ([7]; test sample 0.5 ppm) was 3 and the taste modulating activity [8] was “more active”. For the same molecule, the safety and tolerability (healthy subjects) was “safe and well-tolerated”.
In the case of `COc1c(O)cc(O)c2c(=O)cc(-c3ccccc3)oc12` [Wogonin, 5,7-dihydroxy-8-methoxyflavone], the Functions [9] is reported as “Masked the sharp sourness, added mouthfeel”, the “Flavor Profile” value [1] is reported as “Reduced astringency, sourness, and drying” and the “Masking Intensity” value [1] is reported as 5. For the same molecule, the “Flavor Profile” value ([2]; test sample 0.5 ppm) was “Reduced astringency, sourness, and drying”, the “Masking Intensity” value ([2]; test sample 0.5 ppm) was 5 and the “Masking Intensity” value ([3]; test sample 0.001 ppm) was 1. The “Flavor Profile” value ([3]; test sample 0.01 ppm) was “Slightly reduced astringency, licorice flavor”, the “Masking Intensity” value ([3]; test sample 0.01 ppm) was 2 and the “Masking Intensity” value ([3]; test sample 0.1 ppm) was 3. For the same molecule, the “Masking Intensity” value ([3]; test sample 0.5 ppm) was 4, the “Masking Intensity” value ([3]; test sample 1 ppm) was 5 and the “Masking Intensity” value ([3]; test sample 10 ppm) was 3. The “Masking Intensity” value ([3]; test sample 50 ppm) was 2, the “Flavor Profile” value [4] was “Reduced astringency and bitterness, less” and the “Masking Intensity” value [4] was 5. For the same molecule, the “Flavor Profile” value ([5]; test sample 0.5 ppm) was “Reduced tart taste, more pleasant”, the “Masking Intensity” value ([5]; test sample 0.5 ppm) was 4 and the “Flavor Profile” value [6] was “Reduced bitterness and lingering aftertaste,”. The “Masking Intensity” value [6] was 4, the “Masking Intensity” value ([7]; test sample 0.01 ppm) was 1 and the “Flavor Profile” value ([7]; test sample 0.1 ppm) was “Slightly reduced bitterness and lingering”. The “Masking Intensity” value ([7]; test sample 0.1 ppm) was 3, the “Flavor Profile” value ([7]; test sample 0.5 ppm) was “Reduced bitterness and lingering aftertaste,” and the “Masking Intensity” value ([7]; test sample 0.5 ppm) was 5. For the same molecule, the “Flavor Profile” value ([7]; test sample 10 ppm) was “Slightly reduced lingering aftertaste, very”, the “Masking Intensity” value ([7]; test sample 10 ppm) was 2 and the “Flavor Profile” value ([7]; test sample 50 ppm) was “Slightly reduced lingering aftertaste,”. For the same molecule, the “Masking Intensity” value ([7]; test sample 50 ppm) was 1 and the taste modulating activity [8] was “more active”.

— patent US20250241347A1, “COMPOSITIONS AND METHODS FOR TASTE MODULATION” (INTERNATIONAL FLAVORS & FRAGRANCES INC., priority 2019, published 2025)
